The structures appear in SMILES notation.

One test deals with T1, HCV NS3/4A protease complex, BMS strain (genotype 1a) (UniProt P27958, C1454S/C1711G, species not given/STRAIN_BMS).
T1 construct: b1001: DNA encoding the recombinant HCV NS3/4A protease complex (amino acids 1027 to 1711) ... a three-lysine solubilizing tail was added at the 3′-end of the NS4A coding region; fused on or other part: Three-lysine solubilising tail at the C-terminus of NS4A; A His tag is implied by the pET21b vector and Ni-NTA purification
Put plainly: Recombinant HCV NS3/4A protease complex FRET peptide assay, BMS strain. The settings on record: NS3/4A BMS Strain; activity range classes. Format: biochemical. Put shortly: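 Recombinant NS3/4A (aa 1027–1711) from H77C, J4L6S or BMS strains, with C1454S and C1711G mutations and three-lysine tail, expressed in E. coli and Ni-NTA/gel-filtration purified to >90%. Inhibition of cleavage of a FRET peptide substrate measured.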
Take `COc1ccc2c(OC3CC4C(=O)NC5(C(=O)O)CC5C=CCCCCC(NC(=O)OC(C)(C)C)C(=O)N4C3)nccc2c1` (centres unmarked) [Compound 143]: the IC50 is 50 to 500 nM. The same measure, in the same setting: to `CC(C)(C)OC(=O)N[C@H]1CCCCC/C=C\[C@@H]2C[C@@]2(C(=O)O)NC(=O)[C@@H]2C[C@@H](Oc3nccc4ccccc34)CN2C1=O` [Compound 1, 14-tert-Butoxycarbonylamino-18-(isoquinolin-1-yloxy)-2,15-dioxo-3,16-diaza-tricyclo[14.3.0.0^4,6]nonadec-7-ene-4-carboxylic acid] belongs 50 to 500 nM.

Still in this test, the particulars now being: NS3/4A BMS strain; activity range symbols.
In the case of `O=C(N[C@H]1CCCCC/C=C\[C@@H]2C[C@@]2(C(=O)NS(=O)(=O)C2CC2)NC(=O)[C@@H]2C[C@@H](Oc3nccc4ccccc34)CN2C1=O)O[C@H]1CCOC1` [Compound 15, [4-Cyclopropanesulfonylaminocarbonyl-18-(isoquinolin-1-yloxy)-2,15-dioxo-3,16-diaza-tricyclo[14.3.0.0^4,6]nonadec-7-en-14-yl]-carbamic acid tetrahydro-furan-3-yl ester], the IC50 is below 50 nM.

On to `CCC1(S(=O)(=O)NC(=O)C23CC2C=CCCCSCC(NC(=O)OCC(C)(C)C)C(=O)N2CC(Oc4nccc5cc(OC)ccc45)CC2C(=O)N3)CC1` (centres unmarked) [Compound 45], for which the IC50 is below 50 nM. Still for that read-out and setting: to `COc1ccc2c(OC3CC4C(=O)NC5(C(=O)NS(=O)(=O)C6CC6)CC5C=CCCCSCC(NC(=O)OCC(C)(C)C)C(=O)N4C3)nccc2c1` (centres unmarked) [Compound 75] belongs below 50 nM; to `COc1ccc2c(OC3CC4C(=O)NC5(C(=O)NS(=O)(=O)C6(C)CC6)CC5C=CCCCCCC(NC(=O)OC(C)(C)C)C(=O)N4C3)nccc2c1` (centres unmarked) [Compound 53], below 50 nM; to `CC1(OC(=O)NC2CCCCCC=CC3CC3(C(=O)NS(=O)(=O)C3CC3)NC(=O)C3CC(Oc4nccc5ccccc45)CN3C2=O)CCCC1` (centres unmarked) [Compound 50], below 50 nM. `COc1ccc2c(OC3CC4C(=O)NC5(C(=O)NS(=O)(=O)C6CC6)CC5C=CCOCCCC(NC(=O)OC(C)(C)C)C(=O)N4C3)nccc2c1` (centres unmarked) [Compound 28, [4-Cyclopropanesulfonylaminocarbonyl-18-(6-methoxy-isoquinolin-1-yloxy)-2,15-dioxo-10-oxa-3,16-diaza-tricyclo[14.3.0.0^4,6]nonadec-7-en-14-yl]-carbamic acid tert-butyl ester]: the IC50 was below 50 nM. Same read-out and setting: the figure for `CC(C)(C)OC(=O)N[C@H]1CCCCC/C=C\[C@@H]2C[C@@]2(C(=O)NS(C)(=O)=O)NC(=O)[C@@H]2C[C@@H](Oc3nccc4ccccc34)CN2C1=O` [Compound 2, [18-(Isoquinolin-1-yloxy)-4-methanesulfonylaminocarbonyl-2,15-dioxo-3,16-diaza-tricyclo[14.3.0.0^4,6]nonadec-7-en-14-yl]-carbamic acid tert-butyl ester] is below 50 nM. Consider `COc1ccc2c(O[C@@H]3C[C@H]4C(=O)N[C@]5(C(=O)NS(=O)(=O)C6CC6)C[C@H]5/C=C\CCCCC[C@H](NC(=O)OC(C)(C)C)C(=O)N4C3)nccc2c1` [Compound 17B, [4-Cyclopropanesulfonylaminocarbonyl-18-(6-methoxy-isoquinolin-1-yloxy)-2,15-dioxo-3,16-diaza-tricyclo[14.3.0.0^4,6]nonadec-7-en-14-yl]-carbamic acid tert-butyl ester], for which the IC50 is below 50 nM. On the same count and under the same terms, to `CC1(OC(=O)NC2CCCCCC=CC3CC3(C(=O)NS(=O)(=O)C3CC3)NC(=O)C3CC(Oc4nccc5ccccc45)CN3C2=O)CC1` (centres unmarked) [Compound 59] belongs below 50 nM; to `COc1ccc2c(O[C@@H]3C[C@H]4C(=O)N[C@]5(C(=O)NS(=O)(=O)C6CC6)C[C@H]5/C=C\CCCS(=O)(=O)C[C@H](NC(=O)OC(C)(C)C)C(=O)N4C3)nccc2c1` [Compound 19], below 50 nM. On the same count and under the same terms, the figure for `CCC1(S(=O)(=O)NC(=O)C23CC2C=CCCCS(=O)(=O)CC(NC(=O)OC(C)(C)C)C(=O)N2CC(Oc4nccc5cc(OC)ccc45)CC2C(=O)N3)CC1` (centres unmarked) [Compound 48] is below 50 nM.

The test is the same for the next values; noted with them: read-out: IC50 against the BMS strain NS3/4A protease in the enzyme assay; BMS strain.
As for `CC(C)(C)OC(=O)N[C@H]1CCCCC/C=C\[C@@H]2C[C@@]2(C(=O)NS(C)(=O)=O)NC(=O)[C@@H]2C[C@@H](Oc3nccc4ccccc34)CN2C1=O` [Compound 2, [18-(Isoquinolin-1-yloxy)-4-methanesulfonylaminocarbonyl-2,15-dioxo-3,16-diaza-tricyclo[14.3.0.0^4,6]nonadec-7-en-14-yl]-carbamic acid tert-butyl ester], the IC50 amounted to 26 nM.
